# From patent US12144795B2, “Cannabidiol compositions having modified cannabinoid profiles” (priority 2018, dated 2024)
# Assay: Anti-solvent crystallization, solid form by HT-XRPD of precipitates and evaporated mother liquors, before and after AAC
# Type: physicochemical
# Method: For the anti-solvent crystallization experiments, clear solutions of CBD of approximately 60 mg/mL were prepared. Briefly, 1 volume of cannabidiol solution was added to 4 volumes of anti-solvent. If solids were precipitated, they were collected by centrifugation. The solid was analyzed by XRPD after being dried under ambient conditions and following drying under deep vacuum. The mother liquors were allowed to evaporate until completely dry and the remaining solids analyzed as well. All solids were analyzed by XRPD before and after exposure to accelerated aging conditions (40° C./75% RH) for two days.
# Solids precipitated immediately from the combination of methanol with water. To facilitate precipitation, the samples were placed at 5° C. for 24 hours. […] When no XRPD record was generated, the field is defined as “Not Applicable” (N/A).
# [1] = solvent 1,2-Dimethoxyethane, anti-solvent Decane
# [2] = solvent Acetone, anti-solvent 2,2,4-Trimethylepentane
# [3] = solvent Acetonitrile, anti-solvent Decane
# [4] = solvent Ethanol, anti-solvent Decane
# [5] = solvent Ethyl acetate, anti-solvent 2,2,4-Trimethylepentane
# [6] = solvent Isopropyl acetate, anti-solvent 2,2,4-Trimethylepentane
# [7] = solvent Toluene, anti-solvent Decane
smiles,measurement,setting,value
"C=C(C)[C@@H]1CCC(C)=C[C@H]1c1c(O)cc(CCCCC)cc1O [CBD, (1′R,2′R)-5′-methyl-4-pentyl-2′-(prop-1-en-2-yl)-1′,2′,3′,4′-tetrahydro-[1,1′-biphenyl]-2,6-diol]",Solid form by HT-XRPD Ambient After AAC,"Dichloromethane / 2,2,4-Trimethylepentane, AS:S ratio 4:1",A low yield
same,AS:S ratio 4:1 Precipitation?,[1],No
same,Form (evap. ML),[1],Oily
same,AS:S ratio 4:1 Precipitation?,"solvent 1,2-Dimethoxyethane, anti-solvent Water",No
same,AS:S ratio 4:1 Precipitation?,"solvent 1,4-Dioxane, anti-solvent 2,2,4-Trimethylepentane",No
same,AS:S ratio 4:1 Precipitation?,"solvent 1,4-Dioxane, anti-solvent Water",No
same,AS:S ratio 4:1 Precipitation?,"solvent 2-Butanone, anti-solvent Water",No
same,AS:S ratio 4:1 Precipitation?,[2],No
same,Form (evap. ML),[2],Oily
same,AS:S ratio 4:1 Precipitation?,[3],No
same,Form (evap. ML),[3],Oily
same,AS:S ratio 4:1 Precipitation?,"solvent Dichloromethane, anti-solvent 2,2,4-Trimethylepentane",No
same,AS:S ratio 4:1 Precipitation?,[4],No
same,Form (evap. ML),[4],Oily
same,AS:S ratio 4:1 Precipitation?,[5],No
same,Form (evap. ML),[5],A low
same,Form (evap. ML) after AAC,[5],A low
same,AS:S ratio 4:1 Precipitation?,[6],No
same,Form (evap. ML),[6],Oily
same,AS:S ratio 4:1 Precipitation?,"solvent Methanol, anti-solvent Water",Yes
same,AS:S ratio 4:1 Precipitation?,"solvent Tetrahydrofuran, anti-solvent Decane",No
same,AS:S ratio 4:1 Precipitation?,"solvent Tetrahydrofuran, anti-solvent Water",No
same,AS:S ratio 4:1 Precipitation?,[7],No
same,Form (evap. ML),[7],Oily
